The values that follow come from patent US8778385B1, “Medicated animal food composition” (I Care for Dogs Corp., priority 2005, dated 2014).

Entries after “also recorded” stand apart in the source; their conditions may differ.

One data set relates to tear staining. The data set can be described thus: controlling tear staining in Maltese dogs. The format is in vivo. The source says:
In preparation of the medicated animal food composition, all of the ingredients (except for the tylosin) are initially processed into a powder and then mixed together with the tylosin, as a tartrate. Tylosin is available from the Omaha Vaccine Co. under the brand name TYLAN and is a veterinary antibiotic that is FDA-approved for fowl (chickens/turkeys) and swine (pigs). Tylosin is used primarily to treat respiratory disease caused by Mycoplasma gallisepticum.

Another data set deals with canines. The note with it: cited from earlier work.

On to `CC[C@H]1OC(=O)C[C@@H](O)[C@H](C)[C@@H](O[C@@H]2O[C@H](C)[C@@H](O[C@H]3C[C@@](C)(O)[C@@H](O)[C@H](C)O3)[C@H](N(C)C)[C@H]2O)[C@@H](CC=O)C[C@@H](C)C(=O)/C=C/C(C)=C/[C@@H]1CO[C@@H]1O[C@H](C)[C@@H](O)[C@@H](OC)[C@H]1OC` [Tylosin], for which the “effect in controlling tear staining” value in the data set with tear staining is on record as “some beneficial effect”. `CN(C)[C@@H]1C(O)=C(C(N)=O)C(=O)[C@@]2(O)C(O)=C3C(=O)c4c(O)cccc4[C@@](C)(O)[C@H]3C[C@@H]12` [Tetracycline]: the “side effects when used to treat excessive tearing” value in the data set with canines is recorded as “upset stomach; also recorded: staining of the teeth”.
